Read-outs that look alike come from different tables or passages of the source.
How the values were obtained:
[1] = Chromatographic LogD7.4; assay type: physicochemical; conditions: pH 7.4; for chromatographic logD: gradient HPLC, Phenomenex Synergi Hydro-RP column; for gLogD7.4: chromatographically determined
[2] = In vitro intrinsic clearance in human liver microsomes; assay type: in vitro ADME; conditions: for microsomal CLint: human, liver microsomes, h CLint
[3] = In vitro intrinsic clearance in mouse liver microsomes; assay type: in vitro ADME
[4] = tested on: Chloroquine-sensitive NF54 P. falciparum isolate; experiment: In vitro antiplasmodial activity, NF54; assay type: cell-based, Plasmodium falciparum
[5] = Kinetic solubility at pH 6.5 by nephelometry; assay type: physicochemical; conditions: pH 6.5 phosphate buffer, 1% DMSO, solubility range by nephelometry
[6] = tested on: rat skeletal myoblast L6 cell line; experiment: Cytotoxicity, growth inhibition of L6 cells; assay type: cell-based; conditions: read-out: L6 IC50, mean from n ≥ 2
[7] = tested on: P. falciparum K1; experiment: In vitro antiplasmodial activity, K1, 72 h [3H]hypoxanthine incorporation; assay type: cell-based; conditions: Plasmodium falciparum, K1, read-out: P. falciparum IC50 K1
[8] = tested on: P. falciparum TM90C2B; assay type: cell-based; conditions: Plasmodium falciparum, read-out: P. falciparum IC50 TM90C2B
[9] = tested on: P. falciparum RF12; experiment: In vitro antiplasmodial activity, RF12, 72 h [3H]hypoxanthine incorporation; assay type: cell-based; conditions: Plasmodium falciparum, read-out: P. falciparum IC50 RF12
[10] = tested on: P. falciparum Dd2; experiment: In vitro antiplasmodial activity, Dd2, 72 h [3H]hypoxanthine incorporation; assay type: cell-based; conditions: Plasmodium falciparum, DD2, read-out: P. falciparum IC50 Dd2
[11] = Plasmodium falciparum, NF54, read-out: P. falciparum IC50, NF54, mean from n ≥ 2
[12] = read-out: P. falciparum IC50, NF54, mean from n ≥ 2

Compound: O=C1Nc2ccc(C(=O)N3CCOCC3)cc2C(=O)CCc2ccccc21 [Compound 21, 2-(Morpholine-4-carbonyl)-11,12-dihydro-5H-dibenzo[b,g]azonine-6,13-dione]
- chromatographic logD [1]: 1.3
- microsomal CLint [2]: 11 µL/min/mg
- microsomal CLint [3]: 15 µL/min/mg
- IC50 [4, 11]: 7.8 µM

Compound: O=C1Nc2ccccc2C(=O)CCc2ccc(F)cc21 [Compound 36, 8-Fluoro-11,12-dihydro-5H-dibenzo[b,g]azonine-6,13-dione]
- chromatographic logD [1]: 2.1
- microsomal CLint [2]: 13 µL/min/mg
- microsomal CLint [3]: 43 µL/min/mg
- IC50 [4, 11]: 1.3 µM

Compound: O=C1Nc2ccc(S(F)(F)(F)(F)F)cc2C(=O)CCc2ccccc21 [Compound 27, 2-(Pentafluoro-λ^6-sulfaneyl)-11,12-dihydro-5H-dibenzo[b,g]azonine-6,13-dione]
- gLogD7.4 [1]: > 3
- chromatographic logD [1]: 3.3
- microsomal CLint [2]: 190 µL/min/mg
- microsomal CLint [3]: 71 µL/min/mg
- IC50 [4, 11]: 0.0042 µM

Compound: O=C1Oc2ccccc2C(=O)CCc2ccccc21 [Compound 16, 11,12-Dihydrodibenzo[b,g]oxonine-6,13-dione]
- chromatographic logD [1]: 3.7
- microsomal CLint [2]: 14 µL/min/mg
- microsomal CLint [3]: 16 µL/min/mg
- IC50 [4, 11]: 100 µM

Compound: O=C1Nc2ncccc2C(=O)CCc2ccccc21 [Compound 29, 6,7-Dihydro-5H-benzo[g]pyrido[2,3-b]azonine-5,12-(13H)-dione]
- gLogD7.4 [1]: 1.2
- Kinetic Sol6.5 [5]: >100 µg/mL
- h CLint [2]: 13 μL/min/mg protein
- m CLint [3]: 26 μL/min/mg protein
- IC50 [4, 12]: 8.9 µM
- IC50 [6]: 60 µM

Compound: O=C1CCc2cccnc2C(=O)Nc2ccccc21 [Compound 31, 5,6-Dihydro-7H-benzo[b]pyrido[3,2-g]azonine-7,13-(12H)-dione]
- gLogD7.4 [1]: 0.9
- Kinetic Sol6.5 [5]: >100 µg/mL
- h CLint [2]: 11 μL/min/mg protein
- m CLint [3]: 10 μL/min/mg protein
- IC50 [4, 12]: 11 µM
- IC50 [6]: 190 µM

Compound: C[C@H]1[C@H](OC(=O)CCC(=O)O)O[C@@H]2O[C@@]3(C)CC[C@H]4[C@H](C)CC[C@@H]1[C@@]24OO3 [Artesunate, artesunate]
- IC50 ([4]; Plasmodium falciparum, NF54, read-out: P. falciparum IC50 NF54, Mean ± SD, n ≥ 2, 72 h [3H]hypoxanthine incorporation assay): 0.006 ± 0.0009 µM
- IC50 [7]: 0.0028 ± 0.00064 µM
- IC50 [8]: 0.0074 ± 0.0013 µM
- IC50 [9]: 0.0068 ± 0.0014 µM
- IC50 [10]: 0.0061 ± 0.0014 µM

Compound: N#Cc1ccc2c(c1)CCC(=O)c1ccccc1NC2=O [Compound 33, 6,13-Dioxo-6,11,12,13-tetrahydro-5H-dibenzo[b,g]-azonine-9-carbonitrile]
- chromatographic logD [1]: 2
- microsomal CLint [2]: < 7 µL/min/mg
- microsomal CLint [3]: 160 µL/min/mg
- IC50 [4, 11]: 0.39 µM

Compound: O=C1Nc2ccc(C(F)(F)F)cc2C(=O)CCc2ccccc21 [Compound 25, 2-(Trifluoromethyl)-11,12-dihydro-5H-dibenzo[b,g]-azonine-6,13-dione]
- chromatographic logD [1]: 3
- microsomal CLint [2]: 240 µL/min/mg
- microsomal CLint [3]: 79 µL/min/mg
- IC50 [4, 11]: 0.0094 µM

Compound: NC(=O)c1ccc2c(c1)C(=O)CCc1ccccc1C(=O)N2 [Compound 20, 6,13-Dioxo-6,11,12,13-tetrahydro-5H-dibenzo[b,g]-azonine-2-carboxamide]
- chromatographic logD [1]: 0.8
- microsomal CLint [2]: < 7 µL/min/mg
- microsomal CLint [3]: 10 µL/min/mg
- IC50 [4, 11]: 24 µM

Compound: O=C1Nc2ccccc2C(=O)CCc2cc(O)ccc21 [Compound 34, 9-Hydroxy-11,12-dihydro-5H-dibenzo[b,g]azonine-6,13-dione]
- chromatographic logD [1]: 1.1
- microsomal CLint [2]: 61 µL/min/mg
- microsomal CLint [3]: 84 µL/min/mg
- IC50 [4, 11]: 15 µM

Compound: N#Cc1ccc2c(c1)C(=O)CCc1ccccc1C(=O)N2 [Compound 22, 6,13-Dioxo-6,11,12,13-tetrahydro-5H-dibenzo[b,g]-azonine-2-carbonitrile]
- chromatographic logD [1]: 2.1
- microsomal CLint [2]: 23 µL/min/mg
- microsomal CLint [3]: 20 µL/min/mg
- IC50 [4, 11]: 0.7 µM
- fold less potent than 2 (antiplasmodial) ([4]; relative to compound 2): 3.7 fold

Compound: O=C1CCOc2ccccc2C(=O)Nc2ccccc21 [Compound 7, 6,7-Dihydro-8H-dibenzo[b,f][1,5]oxazecine-8,14-(13H)-dione]
- gLogD7.4 [1]: 2.0
- Kinetic Sol6.5 [5]: >100 µg/mL
- IC50 [4, 12]: 21 µM
- fold less potent than 2 (antiplasmodial) ([4]; relative to compound 2): > 100 fold
- IC50 [6]: 31 µM

Compound: CS(=O)(=O)c1ccc2c(c1)C(=O)CCc1ccccc1C(=O)N2 [Compound 23, 2-(Methylsulfonyl)-11,12-dihydro-5H-dibenzo[b,g]-azonine-6,13-dione]
- chromatographic logD [1]: 1.6
- microsomal CLint [2]: 46 µL/min/mg
- microsomal CLint [3]: 19 µL/min/mg
- IC50 [4, 11]: 5.3 µM

Compound: O=C1Nc2ccccc2C(O)CCc2ccccc21 (stereo not drawn) [Compound 12, 13-hydroxy-5,11,12,13-tetrahydro-6H-dibenzo[b,g]azonin-6-one]
- chromatographic logD [1]: 1.5
- microsomal CLint [2]: 11 µL/min/mg
- microsomal CLint [3]: 27 µL/min/mg
- IC50 [4, 11]: 83 µM

Compound: O=C1Nc2ccccc2C(=NO)CCc2ccccc21 [Compound 10, 13-(Hydroxyimino)-5,11,12,13-tetrahydro-6H-dibenzo[b,g]azonin-6-one]
- chromatographic logD [1]: 1.8
- microsomal CLint [2]: 22 µL/min/mg
- microsomal CLint [3]: 76 µL/min/mg
- IC50 [4, 11]: > 190 µM

Compound: O=C1Nc2ccccc2C(=O)CCc2ccc(O)cc21 [Compound 37, 8-Hydroxy-11,12-dihydro-5H-dibenzo[b,g]azonine-6,13-dione]
- chromatographic logD [1]: 1.2
- microsomal CLint [2]: 7 µL/min/mg
- microsomal CLint [3]: 36 µL/min/mg
- IC50 [4, 11]: 1.1 µM

Compound: O=C1Nc2ccccc2CCCc2ccccc21 [Compound 13, 5,11,12,13-Tetrahydro-6H-dibenzo[b,g]azonin-6-one]
- chromatographic logD [1]: 2.6
- microsomal CLint [2]: 62 µL/min/mg
- microsomal CLint [3]: 81 µL/min/mg
- IC50 [4, 11]: 100 µM

Compound: O=C1Nc2ccccc2C(=O)CCCc2ccccc21 [Compound 6, 6,7-Dihydrodibenzo[b,h]azecine-8,14(5H,13H)-dione]
- chromatographic logD [1]: 1.9
- microsomal CLint [2]: 14 µL/min/mg
- microsomal CLint [3]: 31 µL/min/mg
- IC50 [4, 11]: 0.75 µM
- fold less potent than 2 (antiplasmodial) ([4]; relative to compound 2): 4 fold

Compound: O=C1CCc2ccccc2C(=O)c2ccccc2N1 [Compound 9, 7,8-Dihydro-5H-dibenzo[b,e]azonine-6,13-dione]
- chromatographic logD [1]: 1.9
- microsomal CLint [2]: 7 µL/min/mg
- microsomal CLint [3]: 14 µL/min/mg
- IC50 [4, 11]: 4.6 µM

Compound: CO/N=C1\CCc2ccccc2C(=O)Nc2ccccc21 [Compound 11, (E)-13-(Methoxyimino)-5,11,12,13-tetrahydro-6H-dibenzo[b,g]azonin-6-one]
- chromatographic logD [1]: 2.5
- microsomal CLint [2]: 11 µL/min/mg
- microsomal CLint [3]: 54 µL/min/mg
- IC50 [4, 11]: 95 µM

Compound: O=C(O)c1ccc2c(c1)C(=O)CCc1ccccc1C(=O)N2 [Compound 19, 6,13-Dioxo-6,11,12,13-tetrahydro-5H-dibenzo[b,g]-azonine-2-carboxylic Acid]
- chromatographic logD [1]: < 0
- microsomal CLint [2]: 12 µL/min/mg
- microsomal CLint [3]: < 7 µL/min/mg
- IC50 [4, 11]: 160 µM

Compound: O=C1Nc2ccc(F)cc2C(=O)CCc2ccccc21 [Compound 24, 2-Fluoro-11,12-dihydro-5H-dibenzo[b,g]azonine-6,13-dione]
- chromatographic logD [1]: 2.2
- microsomal CLint [2]: 38 µL/min/mg
- microsomal CLint [3]: 74 µL/min/mg
- IC50 [4, 11]: 0.056 µM

Compound: O=C1CCc2ccccc2C(=O)N2CCCc3cccc1c32 [Compound 15, 2,3,8,9-Tetrahydro-1H-benzo[7,8]azonino[3,2,1-i,j]-quinoline-7,14-dione]
- gLogD7.4 [1]: 2.9
- Kinetic Sol6.5 [5]: 25 to 50 µg/mL
- h CLint [2]: 310 μL/min/mg protein
- m CLint [3]: > 870 μL/min/mg protein
- IC50 [4, 12]: 100 µM
- IC50 [6]: 83 µM

Compound: COc1ccc2c(c1)C(=O)CCc1ccccc1C(=O)N2 [Compound 17, 2-Methoxy-11,12-dihydro-5H-dibenzo[b,g]azonine-6,13-dione]
- chromatographic logD [1]: 2.1
- microsomal CLint [2]: 23 µL/min/mg
- microsomal CLint [3]: 440 µL/min/mg
- IC50 [4, 11]: 0.037 µM
- fold more potent than 2 (antiplasmodial) ([4]; relative to compound 2): roughly 5 fold

Compound: O=C1CCc2ccccc2CC(=O)c2ccccc2N1 [Compound 8, 8,13-Dihydrodibenzo[b,f]azecine-6,14(5H,7H)-dione]
- chromatographic logD [1]: 2.1
- microsomal CLint [2]: < 7 µL/min/mg
- microsomal CLint [3]: 18 µL/min/mg
- IC50 [4, 11]: 6.2 µM
- fold less potent than 2 (antiplasmodial) ([4]; relative to compound 2): 33 fold

Compound: O=C1Nc2ccc(OC(F)(F)F)cc2C(=O)CCc2ccccc21 [Compound 26, 2-(Trifluoromethoxy)-11,12-dihydro-5H-dibenzo-[b,g]azonine-6,13-dione]
- gLogD7.4 [1]: > 3
- chromatographic logD [1]: 3.1
- microsomal CLint [2]: 240 µL/min/mg
- microsomal CLint [3]: 110 µL/min/mg
- IC50 [4, 11]: 0.0042 µM
- in vitro selectivity index ([4]; antiplasmodial selectivity, L6 cytotoxicity vs P. falciparum): > 10,000

Compound: CN1C(=O)c2ccccc2CCC(=O)c2ccccc21 [Compound 14, 5-Methyl-11,12-dihydro-5H-dibenzo[b,g]azonine-6,13-dione]
- chromatographic logD [1]: 2.4
- microsomal CLint [2]: 110 µL/min/mg
- microsomal CLint [3]: 220 µL/min/mg
- IC50 [4, 11]: 77 µM

Compound: O=C1CCc2c(O)cccc2C(=O)Nc2ccccc21 [Compound 35, 10-Hydroxy-11,12-dihydro-5H-dibenzo[b,g]azonine-6,13-dione]
- chromatographic logD [1]: 1.3
- microsomal CLint [2]: 16 µL/min/mg
- microsomal CLint [3]: 60 µL/min/mg
- IC50 [4, 11]: 5.1 µM

Compound: O=C1CCc2ncccc2C(=O)Nc2ccccc21 [Compound 30, 12,13-Dihydro-5H-benzo[b]pyrido[2,3-g]azonine-5,11(6H)-dione]
- chromatographic logD [1]: 0.9
- microsomal CLint [2]: 19 µL/min/mg
- microsomal CLint [3]: 18 µL/min/mg
- IC50 [4, 11]: 9.4 µM
